Reference: ChEMBL document CHEMBL4616707, “Rationally Designed Covalent BCL6 Inhibitor That Targets a Tyrosine Residue in the Homodimer Interface” (ACS Med Chem Lett, 2020)
Active and inactive are the calls of the source. The rule behind the calls is not given here.

Tests used:
SUD4 = test: Antiproliferative activity against human SU-DHL4 cells assessed as growth inhibition at 6.2 uM after 5 days by Celltiter-Glo assay; type: functional, cell-based
[1] = target: B-cell lymphoma 6 protein (Homo sapiens) (UniProt P41182); test: Binding affinity to recombinant human BCL6 (48 to 66 residues) assessed as protein compound adduct formation via Tyr58 residue after 2 hrs by LC-MS/MS analysis
[2] = target: B-cell lymphoma 6 protein (Homo sapiens) (UniProt P41182); test: Covalent inhibition of human wild type BCL6 expressed in HEK293T cells transfected with eGFP assessed as rescue of BI-3802-induced BCL6 degradation at 5 uM incubated for 30 hrs followed by […] addition and measured after 5 hrs by flow cytometry based mCherry reporter gene analysis; type: cell-based; conditions: HEK-293T

| Compound | Activity (SUD4) | Activity [1] | Activity [2] |
| --- | --- | --- | --- |
| CNC(=O)COc1cc2cc(Nc3nc(NCc4cccc(S(C)(=O)=O)c4)ncc3Cl)cc(OC)c2n(C)c1=O | inactive | – | – |
| O=C1Cc2cc(Nc3nc(NCc4cccc(S(=O)(=O)F)c4)ncc3Cl)ccc2N1 | – | Active | Active |
| CNC(=O)COc1cc2cc(Nc3nc(NCc4cccc(S(=O)(=O)F)c4)ncc3Cl)cc(OC)c2n(C)c1=O | Active | Active | Active |
